This data set in a line: Skin PAMPA (Parallel Artificial Membrane Permeability Assay) permeation from a cosmetic formulation. The class given is in vitro ADME. To be noted: for Mean amount per ml acceptor liquid: 0.05% in formulation, no penetration enhancer; for Modulation (%) of penetration / increase of permeation / Modulation (%) of penetration: 3% 1,2-pentanediol (Hydrolite-5); for Penetration behaviour compared with DhAvn D: absence of a penetration enhancer, FIG. 1. The method, then:
The permeation of Avn A from a cosmetic formulation across a stratum corneum-mimicking artificial membrane was evaluated using the Skin PAMPA™ (Parallel Artificial Membrane Permeability Assay) model.
The primary penetration barrier of the skin, the stratum corneum (SC), consists of corneocytes embedded in extracellular lipids. The lipid mixture of the Skin PAMPA™ membrane consists of similar quantities of certramides (synthetic ceramide analogues), stearic acid and cholesterol as the SC. The Skin PAMPA™ sandwich consists of two 96-well plates, wherein one plate is formed so as to sit precisely under the plate that contains a porous lipid-impregnated filter. The wells of the bottom plate were filled with formulation, and the wells of the top plate were filled with acceptor solution. The plates were then stacked and incubated. The Skin PAMPA™ model has been used to evaluate semi-solid formulations and found to correlate well with ex vivo permeation studies.
Heat Phase A and B separately to 70° C.; disperse Phase C in B; add Phase BC to Phase A and emulsify using an ULTRA TURRAX® stirrer (2 minutes); allow to cool by using a vane stirrer; add Phase D for neutralising. The formulation was prepared in bulk. The active substances were pre-dissolved in the corresponding additives and were added to the formulation (15 minutes stirring with a vane stirrer).
180 ml of buffer was mixed with 20 ml ethanol (buffer: 20 mmol/l citric acid, pH 5.5); 0.84 g of anhydrous citric acid was dissolved in approximately 180 g of water; the pH was adjusted to 5.5 using a 30% sodium hydroxide solution; following pH adjustment, the solution was filled up with water to 200 g.
After 240 minutes, approximately 180 μl of each Skin PAMPA™ sample was transferred into an HPLC micro-vial.
Equipment: an Agilent HP 1100 connected to a Waters Empower 3 SR3
Column: a Waters XBridge® C18, 3.5 μm, 3.0×50 mm
Column temperature: 30° C. Mobile phase A: water+0.1% formic acid Mobile phase B: methanol Flow: 1.02 ml/min Injection volume: 25 μl
The permeation of Avn L from a cosmetic formulation across a stratum corneum-mimicking artificial membrane was evaluated as described above using the Skin PAMPA™ (Parallel Artificial Membrane Permeability Assay) model.
The permeation of Avn B from a cosmetic formulation across a stratum corneum-mimicking artificial membrane was evaluated as described above using the Skin PAMPA™ (Parallel Artificial Membrane Permeability Assay) model.
Unlike Examples 1 and 2, acceptor solution samples for HPLC analysis of each Skin PAMPA™ sample were this time taken after just 120 minutes.
The skin permeation of Avn A, Avn B, Avn C and Avn L in comparison to dihydroavenanthramide D (DhAvn D) from a cosmetic formulation across a stratum corneum-mimicking artificial membrane was evaluated as described above using the Skin PAMPA™ (Parallel Artificial Membrane Permeability Assay) model.
Heat Phase A and B separately to 70° C.; disperse Phase C in B; add Phase BC to Phase A and emulsify using an ULTRA TURRAX® stirrer (2 minutes); allow to cool by using a vane stirrer; add Phase D for neutralising. The formulation was prepared in bulk. The active substances were pre-dissolved in glycerine or water or mixtures thereof and were added to the formulation (15 minutes stirring with a vane stirrer).
After 60, 120 and 240 minutes, approximately 180 μl of each Skin PAMPA™ sample was transferred into an HPLC micro-vial and analysed by HPLC.
The permeation of Avn L in comparison to dihydroavenanthramide D (DhAvn D) from a cosmetic formulation in the presence of 3% 1,2-pentanediol across a stratum corneum-mimicking artificial membrane was evaluated as described above using the Skin PAMPA™ (Parallel Artificial Membrane Permeability Assay) model.

Consider `O=C(/C=C/C=C/c1ccc(O)cc1)Nc1ccc(O)cc1C(=O)O` [Avn L], for which the “Penetration behaviour compared with DhAvn D” value was “weaker penetration behaviour than dehydroavenanthramide D (DhAvn D)”. Moreover, for the setting “0 min”, the “Mean amount per ml acceptor liquid” value is 0 μg per ml. Moreover, the “Mean amount per ml acceptor liquid” value (60 min) amounted to 0 μg per ml. Moreover, for the setting “120 min”, the “Mean amount per ml acceptor liquid” value turned out to be 0.000 μg per ml. Also, where the note is “240 min”, the “Mean amount per ml acceptor liquid” value is given as 0.030 μg per ml and the “Modulation (%) of penetration / increase of permeation” value was determined as 125%. The same compound showed an Increase of permeation (1% Hydrolite-6 (1,2-hexanediol), 240 min) of 160%.

On to `O=C(C=Cc1ccc(O)cc1)Nc1ccc(O)cc1C(=O)O` [Avn A, N-(4′-hydroxycinnamoyl)-5-hydroxyanthranilic acid], for which the “Penetration behaviour compared with DhAvn D” value is “weaker penetration behaviour than dehydroavenanthramide D (DhAvn D)”. For the same compound, the “Mean amount per ml acceptor liquid” value (0 min) was determined as 0 μg per ml. Also, the “Mean amount per ml acceptor liquid” value (60 min) was 0.069 μg per ml. Also, for the setting “120 min”, the “Mean amount per ml acceptor liquid” value amounted to 0.188 μg per ml. Under “240 min”, the “Mean amount per ml acceptor liquid” value was 0.319 μg per ml and the “Modulation (%) of penetration / increase of permeation” value came to 19%. This compound showed an Increase of permeation (2% Hydrolite-6 (1,2-hexanediol), 240 min) of 46%. For the same compound, the Increase of permeation (5% Hydrolite-5 (1,2-pentanediol), 240 min) was 59%.

As for `O=C(C=Cc1ccc(O)c(O)c1)Nc1ccc(O)cc1C(=O)O` [Avn C, N-(3′-4′-dihydroxycinnamoyl)-5-hydroxyanthranilic acid], the “Penetration behaviour compared with DhAvn D” value is listed as “penetrates better than dehydroavenanthramide D (DhAvn D)”. Besides, the “Mean amount per ml acceptor liquid” value (0 min) was determined as 0 μg per ml. In addition, the “Mean amount per ml acceptor liquid” value (60 min) was found to be 0.321 μg per ml. The “Mean amount per ml acceptor liquid” value (120 min) turned out to be 0.532 μg per ml. The “Mean amount per ml acceptor liquid” value (240 min) worked out at 1.098 μg per ml.

Consider `O=C(CCc1ccc(O)cc1)Nc1ccccc1C(=O)O` [Dihydroavenanthramide D, 2-(3-(4-hydroxyphenyl-)propanoyl-)amidobenzoic acid, reference compound], for which the “Mean amount per ml acceptor liquid” value (0 min) turned out to be 0.000 μg per ml, the “Mean amount per ml acceptor liquid” value (60 min) worked out at 0.225 μg per ml, the “Mean amount per ml acceptor liquid” value (120 min) was 0.288 μg per ml and the “Mean amount per ml acceptor liquid” value (240 min) worked out at 0.750 μg per ml. The “Modulation (%) of penetration” value is −2% (60 min) and 58% (120 min). Besides, the “Modulation (%) of penetration / increase of permeation” value (240 min) is recorded as 57%.

`COc1cc(C=CC(=O)Nc2ccc(O)cc2C(=O)O)ccc1O` [Avn B, N-(4′-hydroxy-3′-methoxycinnamoyl)-5-hydroxyanthranilic acid]: the “Penetration behaviour compared with DhAvn D” value is recorded as “weaker penetration behaviour than dehydroavenanthramide D (DhAvn D)”. Moreover, the “Mean amount per ml acceptor liquid” value (0 min) is listed as 0 μg per ml. Moreover, the “Mean amount per ml acceptor liquid” value (60 min) turned out to be 0.038 μg per ml. Where the note is “120 min”, the “Mean amount per ml acceptor liquid” value was found to be 0.063 μg per ml. The “Mean amount per ml acceptor liquid” value (240 min) is on record as 0.154 μg per ml. The compound further displayed an Increase of permeation (1% Hydrolite-6 (1,2-hexanediol), Example 3, samples taken after 120 minutes) of 62%. Besides, the Increase of permeation (1% SymDiol 68 (1:1 1,2-hexanediol and 1,2-octanediol), Example 3, samples taken after 120 minutes) is on record as 87%. This compound also showed an Increase of permeation (2% Hydrolite-6 (1,2-hexanediol), Example 3, samples taken after 120 minutes) of 76%.

Source of the values: US20230118435A1, “COMPOSITION COMPRISING AN AVENANTHRAMIDE WITH IMPROVED SKIN PENETRATION” (priority 2020, published 2023).
